Experimental data: patent US20240293413A1, “COMPOUND AND METHOD FOR TREATING CHEMOTHERAPY-RELATED GASTROINTESTINAL SIDE EFFECTS” (ONQUALITY PHARMACEUTICALS CHINA LTD., priority 2021, published 2024)

Key:
Format in all cases: in vivo
[1] = test system: diarrhea caused by a chemotherapeutic agent in Balb/c mice; assay: Examples 382-405 (Table 7): various administration modes of the CDK inhibitor, relief of diarrhea caused by a chemotherapeutic agent
Excerpt: Balb/c mice were fed for 1 week, and then divided into groups. The experiment was divided into a control group, a chemotherapeutic agent group, CDK inhibitor groups (including an oral administration group of a CDK inhibitor, an intraperitoneal injection group of a CDK inhibitor, an intramuscular injection group of a CDK inhibitor, a local administration group of a CDK inhibitor), each of which comprised 10 mice, to perform the administration experiment, for which the administration dosage, mode, time and frequency were shown in Table 7. The control group: being administered with the same solvent as that used in the CDK inhibitor group (the time and mode were shown in Table 7), and then being injected/intragastrically administered with the same solvent as that used in the chemotherapeutic agent group (the administration mode was shown in Table 7): the chemotherapeutic agent group: being administered with the same solvent as that used in the CDK inhibitor group (the time and mode were shown in Table 7), and then being injected/intragastrically administered with the chemotherapeutic agent (the type, administration mode and dosage were shown in Table 7): the oral administration group of the CDK inhibitor: being intragastrically administered with the CDK inhibitor (the time was shown in Table 7), and then being administered with the chemotherapeutic agent (the mode and dosage were shown in Table 7): the intraperitoneal injection group of the CDK inhibitor: being intraperitoneally injected with the CDK inhibitor (the time was shown in Table 7), and then being administered with the chemotherapeutic agent (the mode and dosage were shown in Table 7): the intramuscular injection group of the CDK inhibitor: being intramuscularly injected with the CDK inhibitor (the time was shown in Table 7), and then being administered with the chemotherapeutic agent (the mode and dosage were shown in Table 7); and the local administration group of the CDK inhibitor: the hair on the abdomen of mice was shaved (about 2 cm*2 cm), being applied with the CDK inhibitor (the time was shown in Table 7), and then being administered with the chemotherapeutic agent (the mode and dosage were shown in Table 7).
The diarrhea grading of mice was observed and recorded every day.

[2] = test system: constipation caused by a chemotherapeutic agent in Balb/c mice; assay: Examples 406-443 (Table 8): various administration modes of the CDK inhibitor, relief of constipation caused by a chemotherapeutic agent;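 on Relative remission rate of oral administration: percent of treated mice relieved versus chemotherapy group by feces reduction rate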;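 on Relative remission rate of other administration mode: percent of treated mice relieved versus chemotherapy group by feces reduction rate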
Excerpt: Balb/c mice were fed for 1 week, and then divided into groups. The experiment was divided into a control group, a chemotherapeutic agent group, CDK inhibitor groups (including an oral administration group of a CDK inhibitor, an intravenous injection group of a CDK inhibitor, an intraperitoneal injection group of a CDK inhibitor, an intramuscular injection group of a CDK inhibitor, a local administration group of a CDK inhibitor), each of which comprised 10 mice, to perform the administration experiment, for which the administration dosage, mode, time and frequency were shown in Table 8. The control group: being administered with the same solvent as that used in the CDK inhibitor group (the time and mode were shown in Table 8), and then being injected/intragastrically administered with the same solvent as that used in the chemotherapeutic agent group (the administration mode was shown in Table 8): the chemotherapeutic agent group: being administered with the same solvent as that used in the CDK inhibitor group (the time and mode were shown in Table 8), and then being injected/intragastrically administered with the chemotherapeutic agent (the type, administration mode and dosage were shown in Table 8): the oral administration group of the CDK inhibitor: being intragastrically administered with the CDK inhibitor (the time was shown in Table 8), and then being administered with the chemotherapeutic agent (the mode and dosage were shown in Table 8): the intravenous injection group of the CDK inhibitor: being injected with the CDK inhibitor through tail vein (the time was shown in Table 8), and then being administered with the chemotherapeutic agent (the mode and dosage were shown in Table 8): the intraperitoneal injection group of the CDK inhibitor: being intraperitoneally injected with the CDK inhibitor (the time was shown in Table 8), and then being administered with the chemotherapeutic agent (the mode and dosage were shown in Table 8): the intramuscular injection group of the CDK inhibitor: being intramuscularly injected with the CDK inhibitor (the time was shown in Table 8), and then being administered with the chemotherapeutic agent (the mode and dosage were shown in Table 8); and the local administration group of the CDK inhibitor: the hair on the abdomen of mice was shaved (about 2 cm*2 cm), being applied with the CDK inhibitor (the time was shown in Table 8), and then being administered with the chemotherapeutic agent (the mode and dosage were shown in Table 8).
Feces reduction rate (%)=(the control group−the chemotherapeutic agent group or the CDK inhibitor group)/the control group*100%
The feces amount of mice within 3 hours was observed and recorded every day.

[3] = test system: Chemotherapeutic agent-caused constipation models of Balb/c mice; assay: Examples 272-342 (Table 5): oral CDK inhibitor, relief of constipation caused by a chemotherapeutic agent;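 further: percent of treated mice relieved versus chemotherapy group by feces reduction rate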
In short: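 Balb/c mice, 10 per group: control, chemotherapeutic agent alone, or intragastric CDK inhibitor followed by the chemotherapeutic agent. Feces produced within 3 hours were recorded daily, and feces reduction rate (%) was calculated relative to the control group.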

CN1CCN(c2ccc(Nc3ncc4cc5n(c4n3)C3(CCCCC3)CNC5=O)nc2)CC1 [Trilaciclib (G1T28), Trilaciclib]
10%: Relative remission rate of other administration mode ([1]; Example 402, Gemcitabine (GEM) intramuscular injection 120 mg/kg single, CDK inhibitor intramuscular injection 50 mg/kg single, 24 h before, cycle 8 days) | Relative remission rate of other administration mode ([1]; Example 405, Gemcitabine and carboplatin intraperitoneal injection 120 (G) 100 (C) mg/kg single, CDK inhibitor intramuscular injection 100 mg/kg single, 24 h before, cycle 8 days) | Relative remission rate of other administration mode ([2]; Example 411, Doxorubicin (Dox) intravenous injection 12 mg/kg single, CDK inhibitor intraperitoneal injection 100 mg/kg single, 24 h before, cycle 8 days) | Relative remission rate of other administration mode ([2]; Example 421, Etoposide and cisplatin intraperitoneal injection 50€ 5 mg/kg single, CDK inhibitor intravenous injection 100 mg/kg single, 24 h before, cycle 7 days) | Relative remission rate of other administration mode ([2]; Example 436, Gemcitabine intramuscular injection 120 mg/kg single, CDK inhibitor intramuscular injection 100 mg/kg single, 24 h before, cycle 8 days)
0%: Relative remission rate ([3]; Example 292, Fluorouracil (5-Fu) intraperitoneal injection 175 mg/kg single, CDK inhibitor oral 100 mg/kg single, 48 h before, cycle 7 days) | Relative remission rate ([3]; Example 332, Cytarabine (Ara-C) intraperitoneal injection 600 mg/kg single, CDK inhibitor oral 100 mg/kg single, 48 h before, cycle 8 days)
60%: Relative remission rate of oral administration ([1]; Example 395, Carboplatin (CBP) oral administration 200 mg/kg single, CDK inhibitor oral 100 mg/kg single, 24 h before, cycle 10 days) | Relative remission rate of oral administration ([1]; Example 404, Gemcitabine and carboplatin intraperitoneal injection 120 (G) 100 (C) mg/kg single, CDK inhibitor oral 150 mg/kg single, 12 h before, cycle 8 days) | Relative remission rate ([3]; Example 276, Fluorouracil (5-Fu) intraperitoneal injection 175 mg/kg single, CDK inhibitor oral 100 mg/kg single, 4 h before, cycle 7 days) | Relative remission rate ([3]; Example 278, Fluorouracil (5-Fu) intraperitoneal injection 175 mg/kg single, CDK inhibitor oral 100 mg/kg single, 6 h before, cycle 7 days) | Relative remission rate ([3]; Example 281, Fluorouracil (5-Fu) intraperitoneal injection 175 mg/kg single, CDK inhibitor oral 100 mg/kg single, 9 h before, cycle 7 days) | Relative remission rate ([3]; Example 282, Fluorouracil (5-Fu) intraperitoneal injection 175 mg/kg single, CDK inhibitor oral 100 mg/kg single, 10 h before, cycle 7 days) | Relative remission rate ([3]; Example 286, Fluorouracil (5-Fu) intraperitoneal injection 175 mg/kg single, CDK inhibitor oral 100 mg/kg single, 14 h before, cycle 7 days) | Relative remission rate ([3]; Example 288, Fluorouracil (5-Fu) intraperitoneal injection 175 mg/kg single, CDK inhibitor oral 100 mg/kg single, 18 h before, cycle 7 days) | Relative remission rate ([3]; Example 311, Irinotecan (CPT-11) intramuscular injection 260 mg/kg single, CDK inhibitor oral 50 mg/kg single, 1 h before, cycle 7 days) | Relative remission rate ([3]; Example 314, Fluorouracil and oxaliplatin and irinotecan intraperitoneal injection 70 (F) 5 (O) 100 (I) mg/kg single, CDK inhibitor oral 180 mg/kg single, 12 h before, cycle 10 days) | Relative remission rate ([3]; Example 323, Docetaxel (DTX) intravenous injection 10 mg/kg single, CDK inhibitor oral 100 mg/kg single, 9 h before, cycle 8 days) | Relative remission rate ([3]; Example 328, Cytarabine (Ara-C) intraperitoneal injection 600 mg/kg single, CDK inhibitor oral 100 mg/kg single, 4 h before, cycle 8 days)
30%: Relative remission rate of oral administration ([2]; Example 411, Doxorubicin (Dox) intravenous injection 12 mg/kg single, CDK inhibitor oral 100 mg/kg single, 24 h before, cycle 8 days) | Relative remission rate ([3]; Example 290, Fluorouracil (5-Fu) intraperitoneal injection 175 mg/kg single, CDK inhibitor oral 100 mg/kg single, 22 h before, cycle 7 days) | Relative remission rate ([3]; Example 291, Fluorouracil (5-Fu) intraperitoneal injection 175 mg/kg single, CDK inhibitor oral 100 mg/kg single, 24 h before, cycle 7 days)
can relieve diarrhea: relief of diarrhea by oral, injection and local administration ([1]; diarrhea caused by docetaxel, carboplatin, gemcitabine, and gemcitabine plus carboplatin, under certain conditions, effect of oral administration most significant)
can significantly improve constipation: improvement of constipation by oral administration, intraperitoneal injection, intramuscular injection, local administration ([2]; constipation caused by doxorubicin, etoposide, etoposide plus cisplatin, carboplatin, gemcitabine, gemcitabine plus carboplatin, under certain conditions, oral most significant)
70%: Relative remission rate ([3]; Example 279, Fluorouracil (5-Fu) intraperitoneal injection 175 mg/kg single, CDK inhibitor oral 100 mg/kg single, 7 h before, cycle 7 days) | Relative remission rate ([3]; Example 280, Fluorouracil (5-Fu) intraperitoneal injection 175 mg/kg single, CDK inhibitor oral 100 mg/kg single, 8 h before, cycle 7 days) | Relative remission rate ([3]; Example 284, Fluorouracil (5-Fu) intraperitoneal injection 175 mg/kg single, CDK inhibitor oral 100 mg/kg single, 12 h before, cycle 7 days)
20%: Relative remission rate of other administration mode ([1]; Example 395, Carboplatin (CBP) oral administration 200 mg/kg single, CDK inhibitor local administration 100 mg/kg single, 24 h before, cycle 10 days) | Relative remission rate of other administration mode ([1]; Example 404, Gemcitabine and carboplatin intraperitoneal injection 120 (G) 100 (C) mg/kg single, CDK inhibitor intramuscular injection 100 mg/kg single, 12 h before, cycle 8 days) | Relative remission rate of oral administration ([2]; Example 421, Etoposide and cisplatin intraperitoneal injection 50€ 5 mg/kg single, CDK inhibitor oral 150 mg/kg single, 24 h before, cycle 7 days) | Relative remission rate of other administration mode ([2]; Example 438, Gemcitabine and Carboplatin intravenous injection 120 (G) 100 (C) mg/kg single, CDK inhibitor intraperitoneal injection 100 mg/kg single, 12 h before, cycle 8 days) | Relative remission rate of other administration mode ([2]; Example 439, Gemcitabine and Carboplatin intravenous injection 120 (G) 100 (C) mg/kg single, CDK inhibitor intraperitoneal injection 100 mg/kg single, 24 h before, cycle 8 days)
50%: Relative remission rate of oral administration ([1]; Example 405, Gemcitabine and carboplatin intraperitoneal injection 120 (G) 100 (C) mg/kg single, CDK inhibitor oral 150 mg/kg single, 24 h before, cycle 8 days) | Relative remission rate of oral administration ([2]; Example 438, Gemcitabine and Carboplatin intravenous injection 120 (G) 100 (C) mg/kg single, CDK inhibitor oral 100 mg/kg single, 12 h before, cycle 8 days) | Relative remission rate of oral administration ([2]; Example 439, Gemcitabine and Carboplatin intravenous injection 120 (G) 100 (C) mg/kg single, CDK inhibitor oral 100 mg/kg single, 24 h before, cycle 8 days) | Relative remission rate ([3]; Example 272, Fluorouracil (5-Fu) intraperitoneal injection 175 mg/kg single, CDK inhibitor oral 100 mg/kg single, 0.5 h before, cycle 7 days) | Relative remission rate ([3]; Example 273, Fluorouracil (5-Fu) intraperitoneal injection 175 mg/kg single, CDK inhibitor oral 100 mg/kg single, 1 h before, cycle 7 days) | Relative remission rate ([3]; Example 274, Fluorouracil (5-Fu) intraperitoneal injection 175 mg/kg single, CDK inhibitor oral 100 mg/kg single, 2 h before, cycle 7 days) | Relative remission rate ([3]; Example 283, Fluorouracil (5-Fu) intraperitoneal injection 175 mg/kg single, CDK inhibitor oral 100 mg/kg single, 11 h before, cycle 7 days) | Relative remission rate ([3]; Example 287, Fluorouracil (5-Fu) intraperitoneal injection 175 mg/kg single, CDK inhibitor oral 100 mg/kg single, 16 h before, cycle 7 days) | Relative remission rate ([3]; Example 289, Fluorouracil (5-Fu) intraperitoneal injection 175 mg/kg single, CDK inhibitor oral 100 mg/kg single, 20 h before, cycle 7 days)
40%: Relative remission rate of oral administration ([1]; Example 402, Gemcitabine (GEM) intramuscular injection 120 mg/kg single, CDK inhibitor oral 50 mg/kg single, 24 h before, cycle 8 days) | Relative remission rate of oral administration ([2]; Example 436, Gemcitabine intramuscular injection 120 mg/kg single, CDK inhibitor oral 100 mg/kg single, 24 h before, cycle 8 days) | Relative remission rate ([3]; Example 275, Fluorouracil (5-Fu) intraperitoneal injection 175 mg/kg single, CDK inhibitor oral 100 mg/kg single, 3 h before, cycle 7 days) | Relative remission rate ([3]; Example 277, Fluorouracil (5-Fu) intraperitoneal injection 175 mg/kg single, CDK inhibitor oral 100 mg/kg single, 5 h before, cycle 7 days) | Relative remission rate ([3]; Example 285, Fluorouracil (5-Fu) intraperitoneal injection 175 mg/kg single, CDK inhibitor oral 100 mg/kg single, 13 h before, cycle 7 days) | Relative remission rate ([3]; Example 303, Fluorouracil and oxaliplatin intraperitoneal injection 100 (F) 10 (O) mg/kg single, CDK inhibitor oral 100 mg/kg single, 24 h before, cycle 10 days) | Relative remission rate ([3]; Example 329, Cytarabine (Ara-C) intraperitoneal injection 600 mg/kg single, CDK inhibitor oral 100 mg/kg single, 8 h before, cycle 8 days) | Relative remission rate ([3]; Example 330, Cytarabine (Ara-C) intraperitoneal injection 600 mg/kg single, CDK inhibitor oral 100 mg/kg single, 12 h before, cycle 8 days) | Relative remission rate ([3]; Example 331, Cytarabine (Ara-C) intraperitoneal injection 600 mg/kg single, CDK inhibitor oral 100 mg/kg single, 24 h before, cycle 8 days)
80%: Relative remission rate ([3]; Example 327, Cytarabine (Ara-C) intraperitoneal injection 600 mg/kg single, CDK inhibitor oral 100 mg/kg single, 0.5 h before, cycle 8 days)
